{"source": "patent US20090258079A1", "about": "“Biocompatible Block Copolymer, Use Thereof and Manufacturing Method Thereof” (priority 2005, published 2009)", "molecules": {"B1": {"name": "egg albumin: positive control in the ASA reaction test (protein, UniProt P01012 2-386, looked up)", "Ovalbumin": "GSIGAASMEFCFDVFKELKVHHANENIFYCPIAIMSALAMVYLGAKDSTRTQINKVVRFDKLPGFGDSIEAQCGTSVNVHSSLRDILNQITKPNDVYSFSLASRLYAEERYPILPEYLQCVKELYRGGLEPINFQTAADQARELINSWVESQTNGIIRNVLQPSSVDSQTAMVLVNAIVFKGLWEKAFKDEDTQAMPFRVTEQESKPVQMMYQIGLFRVASMASEKMKILELPFASGTMSMLVLLPDEVSGLEQLESIINFEKLTEWTSSNVMEERKIKVYLPRMKMEEKYNLTSVLMAMGITDVFSSSANLSGISSAESLKISQAVHAAHAEINEAGREVVGSAEAGVDAASVSEEFRADHPFLFCIKHIATNAVLFFGRCVSP"}}, "key": {"[1]": {"experiment": "Solubilization of a drug by micelle formation with the block copolymer", "type": "physicochemical", "conditions": "acetic acid buffer (0.1 M), pH 4.5"}, "[2]": {"conditions": "drug without block copolymer, stated as known property; cited from earlier work"}, "Hartley male guinea pigs": {"test_system": "Hartley male guinea pigs", "conditions": "guinea pig, in vivo", "description": "Hartley male guinea pigs which were 10 weeks old and weighed 338 to 490 g were used. […] The physiological saline was also sterilized by filtration with a 0.22 μm membrane filter."}, "Hartley guinea pigs": {"test_system": "Hartley guinea pigs", "conditions": "guinea pig, in vivo, iv", "procedure": "Hartley guinea pigs which were 7 weeks old and weighed 380 to 510 g were used. […] These substances were dissolved in physiological saline to a predetermined concentration, and the same amount of FCA (Freund's complete adjuvant) or FIA (Freund's incomplete adjuvant) was added to prepare a w/o emulsion. The FCA emulsion was first administered and then the FIA emulsion was administered under the skin of the back and foot pad of each guinea pig at a dose of 2.5 ml/kg on the second and third weeks for sensitization. […] These substances were dissolved in physiological saline to a predetermined concentration. The resulting solution was administered into the veins of the front feet or rear feet of the guinea pigs at a dose of 1.0 ml/kg on the fifth week for induction and observed for 4 hours. For 1 month after that, the weights of the guinea pigs were measured and the general conditions of the guinea pigs were observed once a week."}}}
{"molecule": "CC#CCC(C)[C@H](O)/C=C/[C@@H]1[C@H]2c3cccc(CCCC(=O)O)c3O[C@H]2C[C@H]1O", "note": "(mixture of isomers) [beraprost sodium]", "values": [{"measurement": "dissolution in acetic acid buffer", "setting": "[1]", "result": "precipitate was produced"}]}
{"molecule": "CN(Cc1cnc2nc(N)nc(N)c2n1)c1ccc(C(=O)N[C@@H](CCC(=O)O)C(=O)O)cc1", "note": "[methotrexate]", "values": [{"measurement": "solubility of the drug alone in water", "setting": "[2]", "result": "almost insoluble in water"}]}
{"molecule": "Boc-(Leu-Leu-Ala-Lac)5-Leu-Phe-O-PEG4000-OH", "values": [{"measurement": "toxicity by single dose intravenous administration", "setting": "Hartley male guinea pigs; 20 mg/kg", "result": "not observed"}, {"measurement": "general conditions", "setting": "Hartley male guinea pigs; iv", "result": "Any special abnormality in the general conditions was not seen"}]}
{"molecule": "B1", "values": [{"measurement": "anaphylaxis reaction after induction administration", "setting": "Hartley guinea pigs", "result": "anaphylaxis symptom was seen in all the guinea pigs"}]}
